For orientation: IC50 means the concentration at which inhibition is half-maximal.

In BindingDB's records for doi:10.7270/Q27W69N8 (Srmlsc, 2009) one finds IC50 data, which are given here for 14 compounds.

Structures can show the parent of a compound that is named as a salt.

This assay addresses T1, M17 leucyl aminopeptidase (Plasmodium falciparum (isolate 3D7), UniProt Q8IL11).
T1 sequence (Q8IL11 whole entry): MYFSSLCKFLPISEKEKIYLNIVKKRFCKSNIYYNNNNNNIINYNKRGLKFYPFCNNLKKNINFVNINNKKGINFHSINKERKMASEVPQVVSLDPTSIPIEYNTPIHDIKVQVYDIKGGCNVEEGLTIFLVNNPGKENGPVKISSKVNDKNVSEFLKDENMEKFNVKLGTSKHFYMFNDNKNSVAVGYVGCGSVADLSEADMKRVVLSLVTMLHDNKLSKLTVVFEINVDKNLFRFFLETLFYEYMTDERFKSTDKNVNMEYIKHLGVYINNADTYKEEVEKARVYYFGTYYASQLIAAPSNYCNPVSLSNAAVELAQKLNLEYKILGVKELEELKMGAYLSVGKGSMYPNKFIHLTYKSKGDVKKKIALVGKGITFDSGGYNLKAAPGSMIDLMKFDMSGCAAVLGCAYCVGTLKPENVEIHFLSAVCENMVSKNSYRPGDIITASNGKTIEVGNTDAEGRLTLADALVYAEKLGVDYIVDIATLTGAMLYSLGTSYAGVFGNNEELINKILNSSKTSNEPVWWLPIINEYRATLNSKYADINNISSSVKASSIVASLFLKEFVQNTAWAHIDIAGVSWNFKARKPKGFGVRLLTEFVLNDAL
The assay is described as follows: P. falciparum M17LAP inhibitors, primary screen, biochemical, fluorogenic H-Leu-NHMec substrate, 1536-well (AID 1619).
With `COc1ccc(CN=Nc2ccc(C(=O)O)cc2)cc1Br` [4-[2-[(3-bromo-4-methoxyphenyl)methylidene]hydrazinyl]benzoic acid], the IC50 is 23.4 µM. The compound `Cc1ccc(Nc2nnc(SCC(=O)C(C#N)c3nc4ccccc4[nH]3)s2)c(C)c1` (centres undefined) [2-(1,3-dihydrobenzimidazol-2-ylidene)-4-[[5-(2,4-dimethylanilino)-1,3,4-thiadiazol-2-yl]thio]-3-oxobutanenitrile] gave an IC50 of 6.03 µM. Under `Cc1ccc(/N=C2/S/C(=C\c3cn(CC(=O)O)c4ccccc34)C(=O)N2C)cc1` [2-[3-[(Z)-[3-methyl-2-(4-methylphenyl)imino-4-oxo-5-thiazolidinylidene]methyl]-1-indolyl]acetic acid] stands 11.4 µM. Take `CC(C)CC1c2c(-c3ccccc3)n[nH]c2OC(=N)C1C#N` (centres undefined) [MLS000121961]: the IC50 came to 33.7 µM. Against the preceding compound, the IC50 is about 3-fold higher.

Turning to `O=C1c2ccccc2C(=O)C1C1=NC(C(=O)O)c2c1c(O)n(-c1ccccc1)c2O` (centres undefined) [SMR000168620], the IC50 came out at 68 µM. `COc1ccc(CN=Nc2nc(O)c(CC(=O)O)s2)cc1OCc1ccc(Cl)cc1` [2-[2-[2-[[3-[(4-chlorophenyl)methoxy]-4-methoxy-phenyl]methylidene]hydrazinyl]-4-oxidanylidene-1,3-thiazol-5-yl]ethanoic acid]: the IC50 came to 20.3 µM. Under `C=c1[nH]n(CCC#N)c(=O)c1=Cc1ccc(N(C)C)cc1` [3-[(4E)-4-[[4-(dimethylamino)phenyl]methylidene]-3-methyl-5-oxo-1-pyrazolyl]propanenitrile] stands 120 µM; under `COc1cc(CN=Nc2ccc(Cl)c(C(=O)O)c2)ccc1OC(=O)c1ccco1` [2-chloro-5-[2-[[4-[2-furanyl(oxo)methoxy]-3-methoxyphenyl]methylidene]hydrazinyl]benzoic acid], 48.8 µM; under `Cc1[nH][nH]c(=O)c1CCC(=O)NN=Cc1ccccc1[N+](=O)[O-]`, 3.14 µM.

`Cc1[nH][nH]c(=O)c1CCC(=O)NN=CC(Br)=Cc1ccccc1` [N'-(2-bromo-3-phenyl-2-propen-1-ylidene)-3-(3-methyl-5-oxo-4,5-dihydro-1H-pyrazol-4-yl)propanohydrazide] had an IC50 of 8 µM.

On to `O=C1c2ccccc2C(=O)C1C1=NC(C(=O)O)c2c1c(O)n(-c1ccc(Cl)cc1)c2O` (centres undefined) [MLS000331181], for which the midpoint of inhibition, the IC50, lay at 71.6 µM.

The compound `O=C(O)c1ccc(CN=Nc2ccc(F)cc2F)cc1` [SMR000364892] returned an IC50 of 99.4 µM. Regarding `CCCOc1ccc(-n2c(O)cc(SCCN)c2O)cc1` [3-(2-aminoethylthio)-1-(4-propoxyphenyl)pyrrolidine-2,5-dione;hydrochloride], the IC50 was found to be 12 µM. Compound `CN(C)c1ccc(/N=N/c2ccccc2C(=O)OCC(=O)N2CCCC2)cc1` [MLS000374806] showed an IC50 of 9.23 µM.
